Laboratory results as given in ChEMBL document CHEMBL3885861, “Open TG-GATES”.

Species on record: Rattus norvegicus
Experiment: Open TG-GATES - Regimen: Single
Format: toxicity, organism-based, Sprague-Dawley
Design: regimen Single, gender Male, age 6 weeks
Conditions: in vivo, po, 60 mg/kg, route gavage, dose level Middle; for APTT / Bas / Eos / Fbg / Hb / Ht / Lym / MCH / MCHC / MCV / Mono / Neu / PT / Plat / RBC / Ret / WBC: tissue Blood; for KIDNEY_L / KIDNEY_R / KIDNEY_TOTAL: tissue Kidney; for LIVER: tissue Liver; for A/G / ALP / ALT / AST / BUN / CRE / Ca / Cl / DBIL / GLC / IP / K / LDH / Na / PL / RALB / TBIL / TC / TG / TP / gamma-GTP: tissue Plasma

**Q.** What does the source list for `CCc1oc2ccccc2c1C(=O)c1cc(Br)c(O)c(Br)c1` [BENZBROMARONE]?
**A.** TERMINAL_BW (3 h): 215.1 g; APTT (3 h): 17.4 s; Bas (3 h): 0%; Eos (3 h): 1%; Fbg (3 h): 233.2 mg/dL; Hb (3 h): 13.8 g/dL; Ht (3 h): 41.1%; Lym (3 h): 83%; MCH (3 h): 21.9 pg; MCHC (3 h): 33.7%; MCV (3 h): 64.9 fL; Mono (3 h): 6.6%; Neu (3 h): 9.4%; PT (3 h): 11.8 s; Plat (3 h): 99.4 x10_4/uL; RBC (3 h): 633 x10_4/ul; Ret (3 h): 7.5%; WBC (3 h): 133 x10_2/uL; KIDNEY_L (3 h): 1 g; KIDNEY_R (3 h): 1 g; KIDNEY_TOTAL (3 h): 1.9 g; LIVER (3 h): 10.6 g; A/G (3 h): 2.1; ALP (3 h): 892.8 IU/L; ALT (3 h): 30.6 IU/L; AST (3 h): 62.4 IU/L; BUN (3 h): 12.8 mg/dL; CRE (3 h): 0.6 mg/dL; Ca (3 h): 11 mg/dL; Cl (3 h): 103.8 meq/L; DBIL (3 h): 0.064 mg/dL; GLC (3 h): 202.8 mg/dL; IP (3 h): 9.8 mg/dL; K (3 h): 4.8 meq/L; LDH (3 h): 87.4 IU/L; Na (3 h): 139.6 meq/L; PL (3 h): 147.6 mg/dL; RALB (3 h): 3.8 g/dL; TBIL (3 h): 0.3 mg/dL; TC (3 h): 82.6 mg/dL; TG (3 h): 72.8 mg/dL; TP (3 h): 5.7 g/dL; gamma-GTP (3 h): 1 IU/L; TERMINAL_BW (6 h): 212 g; APTT (6 h): 16.1 s; Bas (6 h): 0%; Eos (6 h): 1%; Fbg (6 h): 230.6 mg/dL; Hb (6 h): 13.5 g/dL; Ht (6 h): 40.2%; Lym (6 h): 75.6%; MCH (6 h): 21.7 pg; MCHC (6 h): 33.6%; MCV (6 h): 64.5 fL; Mono (6 h): 6.4%; Neu (6 h): 17.2%; PT (6 h): 12.2 s; Plat (6 h): 103.4 x10_4/uL; RBC (6 h): 624.2 x10_4/ul; Ret (6 h): 7.8%; WBC (6 h): 86 x10_2/uL; KIDNEY_L (6 h): 1 g; KIDNEY_R (6 h): 1 g; KIDNEY_TOTAL (6 h): 2 g; LIVER (6 h): 9.8 g; A/G (6 h): 2.2; ALP (6 h): 764.8 IU/L; ALT (6 h): 28.8 IU/L; AST (6 h): 58.8 IU/L; BUN (6 h): 9.2 mg/dL; CRE (6 h): 0.5 mg/dL; Ca (6 h): 10.3 mg/dL; Cl (6 h): 103.6 meq/L; DBIL (6 h): 0.016 mg/dL; GLC (6 h): 195 mg/dL; IP (6 h): 10.1 mg/dL; K (6 h): 4.8 meq/L; LDH (6 h): 88.8 IU/L; Na (6 h): 138.6 meq/L; PL (6 h): 131.4 mg/dL; RALB (6 h): 3.8 g/dL; TBIL (6 h): 0.4 mg/dL; TC (6 h): 74.2 mg/dL; TG (6 h): 79.6 mg/dL; TP (6 h): 5.6 g/dL; gamma-GTP (6 h): 1 IU/L
